Columns and labels:
[1] = tested on: Botrytis cinerea; test: Test Example 3: preventive efficacy against Botrytis cinerea on cucumber (comparison with Reference Compound A); format: in vivo; conditions: 500 ppm flowable, foliar spray on cucumber cotyledons, inoculated after spraying, 12° C. humid, 4 days
Method: The control effect of the present compound was evaluated by visually observing the area of a lesion on a plant under test in investigation and comparing the area of a lesion in a non-treatment group and the area of a lesion in a group treated with the present compound. Sand loam was compacted in plastic pots, cucumbers (Ochiai Aonagafushinari) were seeded and grown in a greenhouse for 10 days. Then, each of Reference Compound A and Compound 182 was formulated into a flowable formulation according to Formulation Example 6, then, diluted with water to provide prescribed concentration (500 ppm), and sprayed over the foliage so as to give sufficient adhesion on the surface of cucumber cotyledons. After spraying, the plants were air-dried, and PDA medium containing spores of Botrytis cinerea were attached on cucumber cotyledons. After the inoculation, the cucumbers were placed in a humid condition at 12° C. for 4 days, and the control effect was examined. As a result, areas of lesions on the plant treated with Reference Compound A were in the range of 75% to 100% on those of the untreated groups, on the other hand, areas of lesions on the plant treated with Compound 182 was not greater than 1% of areas of lesions on those of the untreated groups.

[2] = tested on: Sphaerotheca fuliginea; test: Test Example 4: preventive efficacy against Sphaerotheca fuliginea on cucumber (comparison with Reference Compound A); format: in vivo; conditions: 500 ppm flowable, foliar spray on cucumber leaves, inoculated after spraying, 23° C., 12 days
Method: The control effect of the present compound was evaluated by visually observing the area of a lesion on a plant under test in investigation and comparing the area of a lesion in a non-treatment group and the area of a lesion in a group treated with the present compound. Sand loam was compacted in plastic pots, cucumbers (Ochiai Aonagafushinari) were seeded and grown in a greenhouse for 12 days. Then, each of Reference Compound A and Compound 182 was formulated into flowable formulations according to Formulation Example 6, then, diluted with water to provide prescribed concentration (500 ppm), and sprayed over the foliage so as to give sufficient adhesion on the surface of cucumber leaves. After spraying, the plants were air-dried, and inoculated with spores of Sphaerotheca fuliginea. After the inoculation, the cucumbers were placed at 23° C. for 12 days, and the control effect was examined. As a result, areas of lesions on the plant treated with Reference Compound A were in the range of 75% to 100% on those of the untreated groups, on the other hand, areas of lesions on the plant treated with Compound 182 was not greater than 1% of infested areas on those of the untreated groups.

SMILES | melting point [°C] | areas of lesions on treated plant as % of areas of lesions on untreated groups [1] [%] | areas of lesions on treated plant as % of infested areas on untreated groups [2] [%]
Cc1cc(C)n(-c2c(-c3c(F)cc(F)cc3F)c(Cl)nc3nccn23)n1 [Compound 89, 5-(3,5-dimethylpyrazol-1-yl)-6-(2,4,6-trifluorophenyl)-7-chloroimidazo[1,2-a]pyrimidine] | 150.4 | – | –
CC1CCN(c2c(-c3c(F)cccc3Cl)c(Cl)nc3nccn23)CC1 [Compound 182, 5-(4-methylpiperidin-1-yl)-6-(2-chloro-6-fluorophenyl)-7-chloroimidazo[1,2-a]pyrimidine] | 183.8 | ≤ 1 | ≤ 1
CCCN(CCC)c1c(-c2c(F)cc(F)cc2F)c(Cl)nc2nccn12 [Compound 8, 5-(di-n-propylamino)-6-(2,4,6-trifluorophenyl)-7-chloroimidazo[1,2-a]pyrimidine] | 95.4 | – | –
CC1CCN(c2c(-c3c(F)cc(F)cc3F)c(Cl)nc3nccn23)CC1 [Compound 55, 5-(4-methylpiperidin-1-yl)-6-(2,4,6-trifluorophenyl)-7-chloroimidazo[1,2-a]pyrimidine] | 200.8 | – | –
Cc1nc2nccn2c(N2CCC(C)CC2)c1-c1c(F)cccc1Cl [Compound 428, 5-(4-methylpiperidin-1-yl)-6-(2-chloro-6-fluorophenyl)-7-methylimidazo[1,2-a]pyrimidine] | 144.5 | – | –

Source: patent US7211545B2, “Imidazo[1,2-a]pyrimidine and fungicidal compositions containing thereof” (Sumitomo Chemical Company, Limited, priority 2001, dated 2007)
